Patent US9469650B2, “Melampomagnolide B derivatives” (BOARD OF TRUSTEES OF THE UNIVERSITY OF ARKANSAS, priority 2013, dated 2016)
Where two headings read alike, the source gives them in different places. Blank lines part the entries; values can stand above or below the compound they belong to.

Experiments:
RPMI-8226 [1] = experiment: panel of 60 human tumor cell lines, growth inhibition (Leukemia); conditions: Homo sapiens, RPMI-8226
MALME-3M = experiment: panel of 60 human tumor cell lines, growth inhibition (Melanoma); conditions: Homo sapiens, Malme-3M
SR = experiment: panel of 60 human tumor cell lines, growth inhibition (Leukemia); conditions: Homo sapiens
COLO 205 [2] = experiment: panel of 60 human tumor cell lines, growth inhibition (Colon Cancer); conditions: Homo sapiens, COLO 205
SNB-75 = experiment: panel of 60 human tumor cell lines, growth inhibition (CNS Cancer); conditions: Homo sapiens, SNB-75
HOP-92 [3] = experiment: panel of 60 human tumor cell lines, growth inhibition (Non-Small Cell Lung Cancer); conditions: Homo sapiens, HOP-92, HOP-92; 5-dose assay
MDA-MB-435 [4] = experiment: panel of 60 human tumor cell lines, growth inhibition (Melanoma); conditions: Homo sapiens, MDA-MB-435
RXF 393 [5] = experiment: panel of 60 human tumor cell lines, growth inhibition (Renal Cancer); conditions: Homo sapiens, RXF 393, RXF 393; 5-dose assay
NCI-H522 [6] = experiment: panel of 60 human tumor cell lines, growth inhibition (Non-Small Cell Lung Cancer); conditions: Homo sapiens, NCI-H522
MDA-MB-468 = experiment: panel of 60 human tumor cell lines, growth inhibition (Breast Cancer); conditions: Homo sapiens, MDA-MB-468
SW-620 [7] = experiment: panel of 60 human tumor cell lines, growth inhibition (Colon Cancer); conditions: Homo sapiens, SW-620, SW-620; 5-dose assay
HL-60(TB) [8] = experiment: cells; conditions: Homo sapiens, HL-60
M14 [9] = experiment: panel of 60 human tumor cell lines, growth inhibition (Melanoma); conditions: Homo sapiens, M14
CAKI-1 [10] = experiment: panel of 60 human tumor cell lines, growth inhibition (Renal Cancer); conditions: Homo sapiens, CAKI-1
MCF7 [11] = experiment: panel of 60 human tumor cell lines, growth inhibition (Breast Cancer); conditions: Homo sapiens, MCF7, MCF7; 5-dose assay
SF-539 [12] = experiment: panel of 60 human tumor cell lines, growth inhibition (CNS Cancer); conditions: Homo sapiens, SF-539
LOX IMVI [13] = experiment: panel of 60 human tumor cell lines, growth inhibition (Melanoma); conditions: Homo sapiens, 5-dose assay
[14] = tested on: panel of 60 human tumor cell lines; experiment: panel of 60 human tumor cell lines, whole panel or sub-panel (single concentration screen, summaries); format: cell-based; conditions: range over 6a and 6e
[15] = hydrolytic stability in human plasma; format: in vitro ADME
CCRF-CEM [16] = experiment: panel of 60 human tumor cell lines, growth inhibition (Leukemia); conditions: Homo sapiens
DU-145 [17] = experiment: panel of 60 human tumor cell lines, growth inhibition (Prostate Cancer); conditions: Homo sapiens, DU-145
OVCAR-3 [18] = experiment: panel of 60 human tumor cell lines, growth inhibition (Ovarian Cancer); conditions: Homo sapiens, OVCAR-3
T-47D [19] = experiment: panel of 60 human tumor cell lines, growth inhibition (Breast Cancer); conditions: Homo sapiens, T47D
HCT-116 [20] = experiment: panel of 60 human tumor cell lines, growth inhibition (Colon Cancer); conditions: Homo sapiens, HCT-116, HCT-116; 5-dose assay
BT-549 [21] = experiment: panel of 60 human tumor cell lines, growth inhibition (Breast Cancer); conditions: Homo sapiens, BT-549
ACHN [22] = experiment: panel of 60 human tumor cell lines, growth inhibition (Renal Cancer); conditions: Homo sapiens
IGROV1 [23] = experiment: panel of 60 human tumor cell lines, growth inhibition (Ovarian Cancer); conditions: Homo sapiens, IGROV-1
MOLT-4 [24] = experiment: panel of 60 human tumor cell lines, growth inhibition (Leukemia); conditions: Homo sapiens, MOLT-4
K-562 [25] = experiment: as above; conditions: Homo sapiens, K562
TK-10 [26] = experiment: panel of 60 human tumor cell lines, growth inhibition (Renal Cancer); conditions: Homo sapiens, TK-10, TK-10; 5-dose assay
IGROV1 [27] = conditions: values obtained from NCI database; cited from earlier work
DU-145 [28] = conditions: values obtained from NCI database; cited from earlier work
HL-60(TB) [29] = conditions: values obtained from NCI database; cited from earlier work
SF-539 [30] = conditions: values obtained from NCI database; cited from earlier work
COLO 205 [31] = conditions: values obtained from NCI database; cited from earlier work
HCT-116 [32] = conditions: values obtained from NCI database; cited from earlier work
MOLT-4 [33] = conditions: values obtained from NCI database; cited from earlier work
OVCAR-3 [34] = conditions: values obtained from NCI database; cited from earlier work
TK-10 [35] = conditions: values obtained from NCI database; cited from earlier work
NCI-H522 [36] = conditions: values obtained from NCI database; cited from earlier work
CAKI-1 [37] = conditions: values obtained from NCI database; cited from earlier work
SW-620 [38] = conditions: values obtained from NCI database; cited from earlier work
LOX IMVI [39] = conditions: values obtained from NCI database; cited from earlier work
CCRF-CEM [40] = conditions: values obtained from NCI database; cited from earlier work
HOP-92 [41] = conditions: values obtained from NCI database; cited from earlier work
MDA-MB-435 [42] = conditions: values obtained from NCI database; cited from earlier work
BT-549 [43] = conditions: values obtained from NCI database; cited from earlier work
ACHN [44] = conditions: values obtained from NCI database; cited from earlier work
RPMI-8226 [45] = conditions: values obtained from NCI database; cited from earlier work
T-47D [46] = conditions: values obtained from NCI database; cited from earlier work
M14 [47] = conditions: values obtained from NCI database; cited from earlier work
RXF 393 [48] = conditions: values obtained from NCI database; cited from earlier work
MCF7 [49] = conditions: values obtained from NCI database; cited from earlier work
K-562 [50] = conditions: values obtained from NCI database; cited from earlier work
AML 052308 cells [51] = tested on: AML 052308 cells
Text: (§1) Derivatives were screened for antileukemic activity against AML cells in culture (See FIGS. 1-7).

[52] = tested on: AML 100510 primary isolate; experiment: antileukemic activity, cell viability
[53] = tested on: AML 123009 primary isolate; experiment: antileukemic activity, cell viability
M9 ENL cells = experiment: antileukemic activity, cell viability; conditions: M9 ENL cell line
Experimental: Carbamate and carbonate derivatives of MMB were also screened for activity against M9 ENL cells at concentrations of 5, 10 and 20 μM (FIG. 10). […] Additionally, succinic amide derivatives of MMB were screened for activity against M9 ENL cells at concentrations of 5, 10 and 20 μM (FIG. 11).

AML 052308 cells [54] = experiment: cells; conditions: read-out: LC50
Text: as §1

Compound: C=C1C(=O)O[C@H]2[C@H]1CC/C(COC(=O)N1CCC(F)(F)CC1)=C\CC[C@@]1(C)O[C@@H]21 [6a, ((1aR,7aS,10aS,10bS,E)-1a-methyl-8-methylene-9-oxo-1a,2,3,6,7,7a,8,9,10a,10b-decahydrooxireno[2′,3′:9,10]cyclodeca[1,2-b]furan-5-yl)methyl-4,4-difluoropiperidine-1-carboxylate]
GI50 (RPMI-8226 [1]): 1980 nM | GI50 (MALME-3M): 1900 nM | GI50 (SR): 1380 nM | GI50 (COLO 205 [2]): 2060 nM | GI50 (SNB-75): 6130 nM | GI50 (HOP-92 [3]): 1450 nM | GI50 (MDA-MB-435 [4]): 460 nM | GI50 (RXF 393 [5]): 1200 nM | GI50 (NCI-H522 [6]): 1250 nM | GI50 (MDA-MB-468): 570 nM | GI50 (SW-620 [7]): 1460 nM | GI50 (HL-60(TB) [8]): 2040 nM | GI50 (M14 [9]): 2840 nM | GI50 (CAKI-1 [10]): 2030 nM | GI50 (MCF7 [11]): 1620 nM | melting point: 150 °C | GI50 (SF-539 [12]): 1980 nM | GI50 (LOX IMVI [13]): 2230 nM | GI50 ([14]; sub-panel breast cancer): 570 to 3070 nM | GI50 ([14]; sub-panel colon cancer): 1120 to 2060 nM | GI50 ([14]; sub-panel melanoma): 460 to 2840 nM | GI50 ([14]; sub-panel non-small cell lung cancer): 650 to 1450 nM | GI50 ([14]; sub-panel renal cancer): 900 to 2600 nM | half-life [15]: 8 h | GI50 (CCRF-CEM [16]; 5-dose assay): 680 nM | GI50 (CCRF-CEM [16]; leukemia cell line CCRF-CEM): 680 nM | GI50 (DU-145 [17]): 2440 nM | GI50 (OVCAR-3 [18]): 1690 nM | GI50 (T-47D [19]): 3070 nM | GI50 (HCT-116 [20]): 1410 nM | GI50 (BT-549 [21]): 2690 nM | GI50 (ACHN [22]): 1790 nM | GI50 (IGROV1 [23]): 2310 nM | GI50 (MOLT-4 [24]): 2050 nM | GI50 (K-562 [25]): 3450 nM | GI50 (TK-10 [26]): 2600 nM

Compound: C=C1C(=O)O[C@H]2[C@H]1CC/C(COC(=O)NCCCn1ccnc1)=C\CC[C@@]1(C)O[C@@H]21 [6f, ((1aR,7aS,10aS,10bS,E)-1a-methyl-8-methylene-9-oxo-1a,2,3,6,7,7a,8,9,10a,10b-decahydrooxireno[2′,3′:9,10]cyclodeca[1,2-b]furan-5-yl)methyl-(3-(1H-imidazol-1-yl)-propyl)carbamate]
melting point: 70 °C

melting point: 60 °C
Compound: C=C1C(=O)O[C@H]2[C@H]1CC/C(COC(=O)NCCCN1CCOCC1)=C\CC[C@@]1(C)O[C@@H]21 [6g, ((1aR,7aS,10aS,10bS,E)-1a-methyl-8-methylene-9-oxo-1a,2,3,6,7,7a,8,9,10a,10b-decahydrooxireno[2′,3′:9,10]-cyclodeca[1,2-b]furan-5-yl)methyl-(3-morpholinopropyl)carbamate]

Compound: C/C1=C\CC[C@@]2(C)O[C@@H]2[C@H]2OC(=O)[C@H](CN(C)C)[C@@H]2CC1 [DMAPT, dimethylaminoparthenolide]
GI50 (IGROV1 [27]): 19900 nM | GI50 (DU-145 [28]): 5010 nM | GI50 (HL-60(TB) [29]): 1580 nM | GI50 (SF-539 [30]): 2510 nM | GI50 (COLO 205 [31]): 31600 nM | GI50 (HCT-116 [32]): 5010 nM | GI50 (MOLT-4 [33]): 3160 nM | GI50 (OVCAR-3 [34]): 12500 nM | GI50 (TK-10 [35]): 3160 nM | GI50 (NCI-H522 [36]): 2510 nM | GI50 (CAKI-1 [37]): 12500 nM | GI50 (SW-620 [38]): 3980 nM | GI50 (LOX IMVI [39]): 10000 nM | GI50 (CCRF-CEM [40]): 1990 nM | GI50 (HOP-92 [41]): 10000 nM | GI50 (MDA-MB-435 [42]): 7940 nM | GI50 (BT-549 [43]): 5010 nM | GI50 (ACHN [44]): 15800 nM | GI50 (RPMI-8226 [45]): 2510 nM | GI50 (T-47D [46]): 39800 nM | GI50 (M14 [47]): 15800 nM | GI50 (RXF 393 [48]): 15800 nM | GI50 (MCF7 [49]): 5010 nM | GI50 (K-562 [50]): 2510 nM

Compound: C=C1C(=O)O[C@H]2[C@H]1CC/C(COC(=O)NCCCn1ccnc1)=C\CC[C@@]1(C)O[C@@H]21 [JVM 58]
cytotoxicity compared to MMB (AML 052308 cells [51]): less active than MMB

Compound: C=C1C(=O)O[C@H]2[C@H]1CC/C(COC(=O)NCc1ccccn1)=C\CC[C@@]1(C)O[C@@H]21 [JVM 74]
cytotoxicity compared to MMB (AML 052308 cells [51]): almost equal cytotoxicity to MMB

Compound: C=C1C(=O)O[C@H]2[C@H]1CC/C(COC(=O)CCN1CCCCC1)=C\CC[C@@]1(C)O[C@@H]21 [JVM 88]
antileukemic activity compared to MMB [52]: good antileukemic activity compared to MMB | antileukemic activity compared to MMB [53]: good antileukemic activity compared to MMB | antileukemic activity compared to MMB (M9 ENL cells): good antileukemic activity compared to MMB

Compound: C=C1C(=O)OC2C1CC/C(CO)=C\CCC1(C)OC21 (centres unmarked) [MMB, Melampomagnolide B]
CC50 (AML 052308 cells [54]): 16000 nM
